Activity calls are given as the source filed them. The rule behind the calls is not given here.
Assays:
[1] = test system: Rotala indica; test: Pre-emergence herbicidal activity against Rotala indica at 500 g a.i/ha measured after 14 days; format: functional, organism-based
[2] = test system: Echinochloa oryzicola; test: Pre-emergence herbicidal activity against Echinochloa oryzicola assessed as bleaching of stem/leaf parts; format: functional, organism-based
[3] = test system: Lindernia procumbens; test: Post-emergence herbicidal activity against Lindernia procumbens assessed as bleaching of stem/leaf parts; format: functional, organism-based; also: test concentration or dose not given here
[4] = test system: Elatine triandra; test: Pre-emergence herbicidal activity against Elatine triandra assessed as bleaching of stem/leaf parts; format: functional, organism-based
[5] = test system: Ammannia multiflora; test: Pre-emergence herbicidal activity against Ammannia multiflora at 500 g a.i/ha measured after 14 days; format: functional, organism-based
[6] = test system: Pontederia vaginalis; test: Pre-emergence herbicidal activity against Monochoria vaginalis at 500 g a.i/ha measured after 14 days; format: functional, organism-based
[7] = test system: Pontederia vaginalis; test: Post-emergence herbicidal activity against Monochoria vaginalis assessed as bleaching of stem/leaf parts; format: functional, organism-based
[8] = test system: Elatine triandra; test: Post-emergence herbicidal activity against Elatine triandra assessed as bleaching of stem/leaf parts; format: functional, organism-based; also: test concentration or dose not given here
[9] = test system: Ammannia multiflora; test: Post-emergence herbicidal activity against Ammannia multiflora assessed as bleaching of stem/leaf parts; format: functional, organism-based
[10] = test system: Pontederia vaginalis; test: Pre-emergence herbicidal activity against Monochoria vaginalis assessed as bleaching of stem/leaf parts; format: functional, organism-based
[11] = test system: Rotala indica; test: Pre-emergence herbicidal activity against Rotala indica assessed as bleaching of stem/leaf parts; format: functional, organism-based
[12] = test system: Echinochloa oryzicola; test: Post-emergence herbicidal activity against Echinochloa oryzicola assessed as bleaching of stem/leaf parts; format: functional, organism-based
[13] = test system: Rotala indica; test: Post-emergence herbicidal activity against Rotala indica assessed as bleaching of stem/leaf parts; format: functional, organism-based
[14] = test system: Oryza sativa; test: Phytotoxicity against Oryza sativa cv. Koshihikari (rice) at 500 g a.i/ha measured after 14 days; format: organism-based; details: in vivo, 336 h
[15] = test system: Schoenoplectiella juncoides; test: Pre-emergence herbicidal activity against Schoenoplectiella juncoides assessed as bleaching of stem/leaf parts; format: functional, organism-based
[16] = test system: Cyperus difformis; test: Pre-emergence herbicidal activity against Cyperus difformis assessed as bleaching of stem/leaf parts; format: functional, organism-based
[17] = test system: Schoenoplectiella juncoides; test: Pre-emergence herbicidal activity against Schoenoplectiella juncoides at 500 g a.i/ha measured after 14 days; format: functional, organism-based
[18] = test system: Lindernia procumbens; test: Pre-emergence herbicidal activity against Lindernia procumbens at 500 g a.i/ha measured after 14 days; format: functional, organism-based
[19] = test system: Cyperus difformis; test: Pre-emergence herbicidal activity against Cyperus difformis at 500 g a.i/ha measured after 14 days; format: functional, organism-based
[20] = test system: Cyperus difformis; test: Post-emergence herbicidal activity against Cyperus difformis assessed as bleaching of stem/leaf parts; format: functional, organism-based; also: test concentration or dose not given here
[21] = test system: Ammannia multiflora; test: Pre-emergence herbicidal activity against Ammannia multiflora assessed as bleaching of stem/leaf parts; format: functional, organism-based
[22] = test system: Echinochloa oryzicola; test: Pre-emergence herbicidal activity against Echinochloa oryzicola at 500 g a.i/ha measured after 14 days; format: functional, organism-based
[23] = test system: Lindernia procumbens; test: Pre-emergence herbicidal activity against Lindernia procumbens assessed as bleaching of stem/leaf parts; format: functional, organism-based
[24] = test system: Schoenoplectiella juncoides; test: Post-emergence herbicidal activity against Schoenoplectiella juncoides assessed as bleaching of stem/leaf parts; format: functional, organism-based; also: test concentration or dose not given here
[25] = test system: Elatine triandra; test: Pre-emergence herbicidal activity against Elatine triandra at 500 g a.i/ha measured after 14 days; format: functional, organism-based

CC(NC(=O)c1cn(C)nc1Oc1cccc(C(F)(F)F)c1)c1ccccc1 (stereo not given)
Activity [1]: inactive | Activity [2]: Active | Activity [3]: Active | Activity [4]: Active | Activity [5]: inactive | Activity [6]: inactive | Activity [7]: Active | Activity [8]: Active | Activity [9]: Active | Activity [10]: Active | Activity [11]: Active | Activity [12]: Active | Activity [13]: Active | Activity [14]: Non-toxic | Activity [15]: Active | Activity [16]: Active | Activity [17]: inactive | Activity [18]: inactive | Activity [19]: inactive | Activity [20]: Active | Activity [21]: Active | Activity [22]: inactive | Activity [23]: Active | Activity [24]: Active | Activity [25]: inactive

Cn1cc(NC(=O)c2ccc(F)cc2F)c(Oc2cccc(C(F)(F)F)c2)n1
Activity [1]: inactive | Activity [2]: Active | Activity [3]: Active | Activity [4]: Active | Activity [5]: inactive | Activity [6]: inactive | Activity [7]: Active | Activity [8]: Active | Activity [9]: Active | Activity [10]: Active | Activity [11]: Active | Activity [12]: Active | Activity [13]: Active | Activity [14]: Non-toxic | Activity [15]: Active | Activity [16]: Active | Activity [17]: inactive | Activity [18]: inactive | Activity [19]: inactive | Activity [20]: Active | Activity [21]: Active | Activity [22]: inactive | Activity [23]: Active | Activity [24]: Active | Activity [25]: inactive

CCCCNC(=O)c1cn(C)nc1Oc1cccc(C(F)(F)F)c1
Activity [1]: inactive | Activity [2]: Active | Activity [3]: Active | Activity [4]: Active | Activity [5]: inactive | Activity [6]: inactive | Activity [7]: Active | Activity [8]: Active | Activity [9]: Active | Activity [10]: Active | Activity [11]: Active | Activity [12]: Active | Activity [13]: Active | Activity [14]: Non-toxic | Activity [15]: Active | Activity [16]: Active | Activity [17]: inactive | Activity [18]: inactive | Activity [19]: inactive | Activity [20]: Active | Activity [21]: Active | Activity [22]: inactive | Activity [23]: Active | Activity [24]: Active | Activity [25]: inactive

Cn1cc(NC(=O)c2ccc(F)cc2)c(Oc2cccc(C(F)(F)F)c2)n1
Activity [1]: inactive | Activity [2]: Active | Activity [3]: Active | Activity [4]: Active | Activity [5]: inactive | Activity [6]: inactive | Activity [7]: Active | Activity [8]: Active | Activity [9]: Active | Activity [10]: Active | Activity [11]: Active | Activity [12]: Active | Activity [13]: Active | Activity [14]: Non-toxic | Activity [15]: Active | Activity [16]: Active | Activity [17]: inactive | Activity [18]: inactive | Activity [19]: inactive | Activity [20]: Active | Activity [21]: Active | Activity [22]: inactive | Activity [23]: Active | Activity [24]: Active | Activity [25]: inactive

Cn1cc(NC(=O)c2ccc(F)cc2F)c(OCc2cccc(C(F)(F)F)c2)n1
Activity [1]: Active | Activity [2]: Active | Activity [3]: Active | Activity [4]: Active | Activity [5]: Active | Activity [6]: Active | Activity [7]: Active | Activity [8]: Active | Activity [9]: Active | Activity [10]: Active | Activity [11]: Active | Activity [12]: Active | Activity [13]: Active | Activity [14]: Non-toxic | Activity [15]: Active | Activity [16]: Active | Activity [17]: Active | Activity [18]: Active | Activity [19]: Active | Activity [20]: Active | Activity [21]: Active | Activity [22]: Active | Activity [23]: Active | Activity [24]: Active | Activity [25]: Active

CCCN(CC)C(=O)c1cn(C)nc1Oc1cccc(C(F)(F)F)c1
Activity [1]: inactive | Activity [2]: Active | Activity [3]: Active | Activity [4]: Active | Activity [5]: inactive | Activity [6]: inactive | Activity [7]: Active | Activity [8]: Active | Activity [9]: Active | Activity [10]: Active | Activity [11]: Active | Activity [12]: Active | Activity [13]: Active | Activity [14]: Non-toxic | Activity [15]: Active | Activity [16]: Active | Activity [17]: inactive | Activity [18]: inactive | Activity [19]: inactive | Activity [20]: Active | Activity [21]: Active | Activity [22]: inactive | Activity [23]: Active | Activity [24]: Active | Activity [25]: inactive

CSc1ccc(Oc2nn(C)cc2C(=O)Nc2ccc(F)cc2F)cc1C(F)(F)F
Activity [1]: Active | Activity [2]: Active | Activity [3]: Active | Activity [4]: Active | Activity [5]: Active | Activity [6]: Active | Activity [7]: Active | Activity [8]: Active | Activity [9]: Active | Activity [10]: Active | Activity [11]: Active | Activity [12]: Active | Activity [13]: Active | Activity [14]: Non-toxic | Activity [15]: Active | Activity [16]: Active | Activity [17]: inactive | Activity [18]: Active | Activity [19]: Active | Activity [20]: Active | Activity [21]: Active | Activity [22]: Active | Activity [23]: Active | Activity [24]: Active | Activity [25]: Active

Reference: ChEMBL document CHEMBL3046607, “Synthesis and Herbicidal Activity of New 1-Alkyl-3-aryloxypyrazole-4-carboxamide Derivatives” (J Pestic Sci, 2004)
